Where “and” joins values, the source holds several entries; their conditions need not be identical. Identical values can stand only once.
Columns and labels:
[1] = molecular target: HIS-Keap1 full length / Biotin-Nrf2 (16-mer) (Homo sapiens, UniProt Q14145); assay: biochemical
[2] = test system: NQO1 activation in BEAS-2B cells; assay: BEAS-2B cellular MTT assay of NQO1 activation, 0.3% HSA; assay type: cell-based
Experimental: (§1) The growth rate of the BEAS-2B cells changed based on the lot of BEGM SingleQuots in the BEGM media. The cell growth rate was determined for each lot of SingleQuots. Ideally, cells were thawed into media with the new lot of SingleQuots and grown for two passages before testing; however, growing an active culture in the new lot of media for two to three passages before testing was also acceptable. Until the cell growth rate was determined, cells were seeded at different densities (cells/cm^2) in multiple tissue culture flasks in order to avoid the cells becoming more than 70% confluent. Cells should not go above 70% confluent as the cells differentiate when they become confluent. After the cells were grown in the new lot of media as described above, the number of cells per well needed to seed in the collagen plates was determined by seeding different numbers of cells per well and incubating for 48 hours. Cell confluency was checked after 48 hours and a cell number that results in just below to just above confluency was chosen for future plate seeding. Cell confluency in the assay plate was 95-100% confluent after 48 hours.
(§2) Cell media consists of BEBM basal media with the BEGM SingleQuots added. SingleQuots vials were thawed in the tissue culture hood, and GA-1000 (Gentamicin-Amphotericin) was not added.
(§3) If complete media was to be used immediately, BEBM basal media was warmed to room temperature in the hood, but not as high as 37° C. When the media was made for future use, SingleQuots were added to cold BEBM. One at a time, the SingleQuots components (except GA-1000) were added to the BEBM media. After removal of each component from the vial, the vial was rinsed with 0.5-1 mL of BEBM (depending on the volume the vial could hold) and added to the bottle of BEBM. Once all components were added, the label that comes with the SingleQuots kit was put on the bottle of media and the date was recorded. The bottle of media was mixed by gentle shaking. The media was not filtered. This media was stored at 4° C., with any leftover media disposed of one month after the date the SingleQuots were added.
(§4) BEAS-2B Cell Splitting Protocol:
(§5) First, Trypsin was warmed to 37° C. in the water bath. The media was then warmed to room temperature by letting it sit in the tissue culture hood, but not as high as 37° C. The media was aspirated from flask(s) and the flask(s) were washed with PBS. From 1 to 1.5 mL of warm trypsin were added to each flask and incubated at 37° C. until cells came off the flask on their own (~8-10 minutes), with no vigorous tapping on the flask to detach the cells.
(§6) Media was added to each flask to a total volume of 8-10 mL per flask and transferred to 15 mL conical tube(s). The cells were spun down at 120 g for 5 minutes, level 5 brake. The cells can be spun down between 100 and 150 g. Next the media was aspirated and the cell pellet was resuspended in fresh media by pipetting up and down and flicking the tube side to side. Any clumps of cells that remained were allowed to settle to the bottom of the tube before the top suspension was transferred into another tube, leaving about 1 mL of media in the original tube. The 1 mL of media and cell clumps were mixed with a single channel p1000 pipette, and any remaining clumps were removed before adding the cells in suspension to the other tube. The suspension was mixed with a pipette, an aliquot was removed, and the cells were counted. The amount of cells/cm^2 desired was calculated and the required volume of cells was added to tissue culture flasks. For example, use of SingleQuots with ~6000 cells/cm^2 was appropriate for a three day incubation and ~3000 cells/cm^2 for a five day incubation. Optimal cell density differed depending on lot of SingleQuots. The flasks were incubated at 37° C. in 5% CO2.
(§7) Day One: Seeding BEAS-2B Cells in Collagen Plates:
(§8) Plate(s) were either seeded with 0.3% or 0% HSA. While the protocol was similar for both conditions any differences are noted herein below. […]

[3] = test system: NQO1 activation in BEAS-2B cells; assay: BEAS-2B cellular MTT assay of NQO1 activation, 0% HSA; assay type: cell-based
Experimental: as §1, §2, §3, §4, §5, §6, §7, §8

[4] = Homo sapiens, BEAS+, read-out: BEAS+ EC50
[5] = Homo sapiens, serum free, read-out: BEAS EC50 (nM) serum free
[6] = serum free, read-out: BEAS EC50 (nM) serum free
[7] = BEAS+ W, read-out: BEAS+ W EC50
[8] = Homo sapiens, BEAS+ W, read-out: BEAS+ W EC50
[9] = Homo sapiens, Serum Free W, read-out: BEAS EC50 (nM) Serum Free W
[10] = Serum Free W, read-out: BEAS EC50 (nM) Serum Free W

Sequence of HIS-Keap1 full length / Biotin-Nrf2 (16-mer) (Q14145 whole entry): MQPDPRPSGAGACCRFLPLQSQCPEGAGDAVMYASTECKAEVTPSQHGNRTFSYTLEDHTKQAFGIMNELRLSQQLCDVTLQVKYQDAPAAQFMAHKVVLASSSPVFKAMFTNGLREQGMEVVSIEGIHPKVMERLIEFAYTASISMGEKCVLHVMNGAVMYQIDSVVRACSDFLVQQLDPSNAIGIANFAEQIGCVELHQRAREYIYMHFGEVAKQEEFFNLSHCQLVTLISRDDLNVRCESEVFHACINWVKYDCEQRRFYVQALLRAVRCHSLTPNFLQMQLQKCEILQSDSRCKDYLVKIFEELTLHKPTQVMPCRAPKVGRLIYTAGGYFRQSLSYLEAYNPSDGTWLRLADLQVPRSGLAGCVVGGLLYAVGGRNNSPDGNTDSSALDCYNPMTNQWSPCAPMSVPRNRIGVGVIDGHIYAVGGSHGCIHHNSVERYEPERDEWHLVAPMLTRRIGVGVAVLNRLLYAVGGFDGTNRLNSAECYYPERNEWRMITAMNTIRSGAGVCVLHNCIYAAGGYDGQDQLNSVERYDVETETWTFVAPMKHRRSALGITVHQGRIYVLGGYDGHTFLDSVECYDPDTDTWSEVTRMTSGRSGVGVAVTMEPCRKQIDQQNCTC

O=C(O)C[C@H]1c2ccc3c(c2)CN(CC3)C(=O)c2cccc(c2)OCCCCCn2nnc3cc1ccc32 [Compound 434]
IC50 [1]: 17.8 nM and 55.4 nM

Cc1cc2ccc1C(=O)N1CCc3ccc(cc3C1)C(CC(=O)O)c1ccc3c(nnn3CCCCCC2)c1C (stereo not drawn) [Compound 295]
EC50 [2, 4]: 0.7 nM | EC50 [3, 5]: 0.2 nM

Cc1cc2ccc1C(=O)N1CCc3ccc(cc3C1)[C@H](CC(=O)O)c1ccc3c(nnn3CCCCCC2)c1C [Compound 245]
EC50 ([2]; BEAS+, read-out: BEAS+ EC50): 37.6 nM | EC50 [2, 4]: 24.8 nM | EC50 [3, 5]: 19.4 nM | EC50 [3, 6]: 18.5 nM

COc1cc2ncc1[C@@H](CC(=O)O)c1ccc3c(c1)CN(CC3)C(=O)c1ccc(cc1)CCCCCO2 [Compound 73]
EC50 [2, 7]: 590 nM | EC50 [2, 8]: 464 nM | EC50 [3, 9]: 287 nM | EC50 [3, 10]: 373 nM

O=C(O)C[C@@H]1c2ccc3c(c2)CN(CC3)Cc2ccc(cc2)OCCCCCCn2nnc3cc1ccc32 [Compound 405]
IC50 [1]: 2150 nM and 2050 nM

CC(C)(C(=O)O)C1c2ccc3c(c2)CN(CC3)C(=O)c2ccc(cc2)OCCCCCCn2nnc3cc1ccc32 (stereo not drawn) [Compound 287]
EC50 [2, 4]: 112 nM | EC50 [3, 5]: 3.1 nM

Cc1ccc2cc1OCCCCCn1nnc3cc(ccc31)C(CC(=O)O)c1ccc3c(c1)CN(CC3)C2=O (stereo not drawn) [Compound 430]
IC50 [1]: 67.5 nM and 56.1 nM

Cc1c2ccc3c1nnn3CCCCCCOc1ccc(c(F)c1)C(=O)N1CCc3ccc(cc3C1)C2CC(=O)O (stereo not drawn) [Compound 317]
EC50 [2, 4]: 11.9 nM | EC50 [3, 5]: 0.6 nM

Cc1ccc2cc1C(=O)N1CCc3ccc(cc3C1)[C@H]([C@@H](C)C(=O)O)c1ccc3c(nnn3CCCCCO2)c1C [Compound 411]
IC50 [1]: 5.2 nM and 10.1 nM

O=C(O)CC1c2ccc3c(c2)CN(CC3)S(=O)(=O)c2ccc(cc2)OCCCCCCn2nnc3cc1ccc32 (stereo not drawn) [Compound 404]
IC50 [1]: 662 nM and 271 nM

COc1cc2ccc1C(=O)N1CCc3ccc(cc3C1)[C@H](CC(=O)O)c1ccc3c(nnn3CCCCCC2)c1C [Compound 108]
EC50 [3, 9]: 7.2 nM | EC50 [3, 10]: 7.9 nM

Cc1c2ccc3c1nnn3CCCCCc1ccc(cc1)C(=O)N1CCc3ccc(cc3C1)[C@@H]2[C@H](C)C(=O)O [Compound 116]
EC50 [2, 7]: 252 nM | EC50 [2, 8]: 212 nM | EC50 [3, 9]: 130 nM | EC50 [3, 10]: 84.8 nM

Cc1c2ccc3c1nnn3CCCCCCOc1ccc(c(F)c1)C(=O)N1CCc3ccc(cc3C1)[C@H]2[C@@H](C)C(=O)O [Compound 152]
EC50 [2, 4]: > 10000 nM | EC50 [3, 5]: > 10000 nM

Cc1c2ccc3c1nnn3CCCCCCOc1ccc(c(F)c1)C(=O)N1CCc3ccc(cc3C1)[C@@H]2[C@@H](C)C(=O)O [Compound 181]
EC50 ([2]; BEAS+, read-out: BEAS+ EC50): 6.6 nM | EC50 [2, 4]: 5.3 nM | EC50 [3, 5]: 3.6 nM | EC50 [3, 6]: 3.4 nM

Cc1c2ccc3c1nnn3CCCCCc1ccc(cc1)C(=O)N1CCc3ccc(cc3C1)[C@@H]2[C@H](C)C(=O)O [Compound 160]
EC50 ([2]; BEAS+, read-out: BEAS+ EC50): 13.2 nM | EC50 [2, 4]: 12.4 nM | EC50 [3, 5]: 9.4 nM | EC50 [3, 6]: 7 nM

Cc1c2ccc3c1nnn3CCCCCCc1ccc(cc1)C(=O)N1CCc3ccc(cc3C1)[C@@H]2[C@@H](C)C(=O)O [Compound 176]
EC50 ([2]; BEAS+, read-out: BEAS+ EC50): 0.2 nM | EC50 [2, 4]: 0.1 nM | EC50 [3, 5]: 0.5 nM | EC50 [3, 6]: 0.8 nM

O=C(O)CC1c2ccc3c(c2)CN(CC3)C(=O)c2ccc(cc2)OCCCCCCn2nnc3cc1ccc32 (stereo not drawn) [Compound 329]
EC50 [2, 4]: 1230 nM | EC50 [3, 5]: 403 nM

COc1cc2ccc1C(=O)N1CCc3ccc(cc3C1)C(CC(=O)O)c1ccc3c(nnn3CCCCCC2)c1C (stereo not drawn) [Compound 188]
EC50 ([2]; BEAS+, read-out: BEAS+ EC50): 14.9 nM | EC50 [2, 4]: 15.3 nM | EC50 [3, 5]: 9.4 nM | EC50 [3, 6]: 9.1 nM

Cc1cc2cnc1OCCCCCc1ccc(cc1)C(=O)N1CCc3ccc(cc3C1)[C@@H]2[C@@H](C)C(=O)O [Compound 72]
EC50 [2, 7]: 7720 nM | EC50 [2, 8]: 9870 nM | EC50 [3, 9]: > 1000 nM | EC50 [3, 10]: 1930 nM

Cc1c2ccc3c1nnn3CCCCCCOc1ccc(c(F)c1)C(=O)N1CCc3ccc(cc3C1)[C@H]2CC(=O)O [Compound 255]
EC50 ([2]; BEAS+, read-out: BEAS+ EC50): 289 nM | EC50 [2, 4]: 288 nM | EC50 [3, 5]: 4.8 nM | EC50 [3, 6]: 4 nM

Cc1c2ccc3c1nnn3CCCCCCOc1ccc(c(F)c1)C(=O)N1CCc3ccc(cc3C1)[C@H]2[C@H](C)C(=O)O [Compound 156]
EC50 ([2]; BEAS+, read-out: BEAS+ EC50): 171 nM | EC50 [2, 4]: 201 nM | EC50 [3, 5]: 55.9 nM | EC50 [3, 6]: 44.3 nM

Cc1c2ccc3c1nnn3CCCCCCOc1ccc(c(F)c1)C(=O)N1CCc3ccc(cc3C1)[C@@H]2[C@H](C)C(=O)O [Compound 177]
EC50 ([2]; BEAS+, read-out: BEAS+ EC50): 140 nM | EC50 [2, 4]: 107 nM | EC50 [3, 5]: 43.7 nM | EC50 [3, 6]: 36.1 nM

Cc1cc2ncc1[C@H](C(C)(C)C(=O)O)c1ccc3c(c1)CN(CC3)C(=O)c1ccc(cc1)CCCCCO2 [Compound 53]
EC50 [2, 7]: 47.8 nM | EC50 [2, 8]: 38.5 nM | EC50 [3, 9]: 8.7 nM | EC50 [3, 10]: 12.3 nM

COc1cc2ccc1C(=O)N1CCc3ccc(cc3C1)[C@@H](CC(=O)O)c1ccc3c(nnn3CCCCCC2)c1C [Compound 109]
EC50 [2, 7]: 100 nM | EC50 [2, 8]: 172 nM | EC50 [3, 9]: 32.1 nM | EC50 [3, 10]: 38 nM

Cc1cc2ncc1[C@@H]([C@@H](C)C(=O)O)c1ccc3c(c1)CN(CC3)C(=O)c1ccc(cc1)CCCCCO2 [Compound 82]
EC50 [2, 7]: 1760 nM | EC50 [2, 8]: 1960 nM | EC50 [3, 9]: 594 nM | EC50 [3, 10]: 641 nM

Cc1c2ccc3c1nnn3CCCCCCc1ccc(cc1)C(=O)N1CCc3ccc(cc3C1)[C@@H]2[C@@H](C)C(=O)O (racemic) [Compound 201]
EC50 ([2]; BEAS+, read-out: BEAS+ EC50): 0.5 nM and 0.2 nM | EC50 [3, 6]: 0.3 nM and 0.1 nM

Cc1c2ccc3c1nnn3CCOCCCOc1ccc(c(F)c1)C(=O)N1CCc3ccc(cc3C1)C2CC(=O)O (stereo not drawn) [Compound 382]
EC50 ([2]; BEAS+, read-out: BEAS+ EC50): 136 nM | EC50 [2, 4]: 169 nM | EC50 [3, 5]: 86.2 nM | EC50 [3, 6]: 125 nM

O=C(O)CC1c2ccc3c(c2)CN(CC3)C(=O)c2ccc(cc2)OCCCCCn2nnc3cc1ccc32 (stereo not drawn) [Compound 334]
EC50 [2, 4]: 898 nM | EC50 [3, 5]: 547 nM

Cc1cc2ncc1[C@@H]([C@H](C)C(=O)O)c1ccc3c(c1)CN(CC3)C(=O)c1ccc(cc1)CCCCCO2 [Compound 84]
EC50 [2, 7]: 30 nM | EC50 [2, 8]: 26.3 nM | EC50 [3, 9]: 7.4 nM | EC50 [3, 10]: 6.2 nM

Cc1cc2ncc1[C@@H](C(C)(C)C(=O)O)c1ccc3c(c1)CN(CC3)C(=O)c1ccc(cc1)CCCCCO2 [Compound 54]
EC50 [3, 9]: 0.2 nM | EC50 [3, 10]: 0.1 nM

Cc1cc2ccc1C(=O)N1CCc3ccc(cc3C1)C(CC(=O)O)c1ccc3c(c1)nnn3CCCCCO2 (stereo not drawn) [Compound 330]
EC50 [2, 4]: 862 nM | EC50 [3, 5]: 1070 nM

Cc1c2ccc3c1nnn3CCCCCCc1ccc(cc1)C(=O)N1CCc3ccc(cc3C1)[C@@H]2[C@@H](C)C(=O)O [Compound 132]
EC50 [2, 8]: > 10000 nM | EC50 [3, 9]: > 1000 nM

C[C@@H](C(=O)O)[C@H]1c2ccc(nc2)OCCCCCc2ccc(cc2)C(=O)N2CCc3ccc1cc3C2 [Compound 57]
EC50 [2, 7]: 0.6 nM | EC50 [3, 10]: 0.3 nM

Cc1cc2cnc1OCCCCCc1ccc(cc1)C(=O)N1CCc3ccc(cc3C1)[C@@H]2[C@H](C)C(=O)O [Compound 71]
EC50 [2, 7]: 13.2 nM | EC50 [2, 8]: 10.5 nM | EC50 [3, 9]: 3.4 nM | EC50 [3, 10]: 3.3 nM

COc1cc2ncc1[C@H](CC(=O)O)c1ccc3c(c1)CN(CC3)C(=O)c1ccc(cc1)CCCCCO2 [Compound 79]
EC50 [2, 7]: 2040 nM | EC50 [2, 8]: 1720 nM | EC50 [3, 9]: 733 nM | EC50 [3, 10]: 810 nM

Cc1c2ccc3c1nnn3CCCCCCOc1ccc(c(F)c1)C(=O)N1CCc3ccc(cc3C1)[C@@H]2CC(=O)O [Compound 257]
EC50 ([2]; BEAS+, read-out: BEAS+ EC50): 146 nM | EC50 [2, 4]: 228 nM | EC50 [3, 5]: 7.4 nM | EC50 [3, 6]: 4.3 nM
